These results are taken from ChEMBL document CHEMBL1201862, “PubChem BioAssay data set” (2004).

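Exposure lasted 48 hours, with cells grown in 96-well plates and compounds tested at five concentrations. GI50 marks 50% less growth.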 Activity calls are given as the source filed them. No stated cut-off is given here; in the data, active = GI50 up to about 1.1 µM and inactive = higher. Bounds are passed on as bounds.

Test systems include EKVX; HL-60; HOP-92; HT-29; Hs-578T; KM12; MDA-MB-231; NCI-H226; NCI-H23; RPMI-8226; SF-295; SF-539; SK-MEL-28; SK-MEL-2; SK-MEL-5; SNB-19; SNB-75; U-251; UO-31.
Holding throughout (assay): NCI tumour cell line growth inhibition, 48 h

As for `O=C(Cn1c(C(=O)c2ccccc2)nc2ccccc21)c1ccccc1`, the GI50 is > 100 µM (inactive) in the assay on EKVX; 7.1 µM (inactive) with HL-60; 70.5 µM (inactive) in the assay with HOP-92; 19.2 µM (inactive) in the assay with HT-29; 30.5 µM (inactive) in the assay with Hs-578T; > 100 µM (inactive) with KM12. For the same compound, the GI50 is > 100 µM (inactive) in the assay on MDA-MB-231; > 100 µM (inactive) in the assay with NCI-H226; > 100 µM (inactive) with NCI-H23; > 100 µM (inactive) in the assay with RPMI-8226; 67 µM (inactive) with SF-295; > 100 µM (inactive) in the assay on SF-539. Moreover, the GI50 with SK-MEL-28 was > 100 µM (inactive); with SK-MEL-2, > 100 µM (inactive); in the assay with SK-MEL-5, > 100 µM (inactive); with SNB-19, > 100 µM (inactive); in the assay with SNB-75, > 100 µM (inactive); with U-251 it was > 77.1 µM (inactive). In addition, the GI50 in the assay on UO-31 is > 56.1 µM (inactive).
For `O=C1C=CC2(O[C@H](c3ccccc3)[C@@H](c3ccccc3)O2)[C@H](Sc2ccccc2O)C1`, the GI50 with EKVX is 1.43 µM (inactive); in the assay on HL-60, 0.264 µM (active); in the assay with HOP-92, 0.52 µM (active); in the assay with HT-29 it was 0.398 µM (active); in the assay on Hs-578T, 0.836 µM (active); with KM12, 1.98 µM (inactive). For the same compound, the GI50 in the assay with MDA-MB-231 is 0.839 µM (active); with NCI-H226, 2.72 µM (inactive); in the assay with NCI-H23, 0.708 µM (active); in the assay with RPMI-8226 it was 0.0424 µM (active); in the assay with SF-295 it was 6.43 µM (inactive); with SF-539, 0.757 µM (active). Further, the GI50 in the assay with SK-MEL-28 was 1.36 µM (inactive); in the assay with SK-MEL-2, 2.02 µM (inactive); in the assay with SK-MEL-5, 0.993 µM (active); in the assay with SNB-19, 1.72 µM (inactive); with SNB-75, 3.28 µM (inactive); in the assay with U-251 it was 0.498 µM (active). Moreover, in the assay on UO-31, the GI50 is 0.665 µM (active).
In the case of `COc1ccc(OC)c2nc3c(C(=O)NCCN(C)C)cccc3nc12`, the GI50 with EKVX was 6.58 µM (inactive); with HL-60, 3.18 µM (inactive); in the assay with HOP-92, 4.18 µM (inactive); with HT-29, 1.8 µM (inactive); in the assay with Hs-578T, 5.89 µM (inactive); in the assay with KM12, 4.2 µM (inactive). For the same compound, the GI50 with MDA-MB-231 is 2.94 µM (inactive); with NCI-H226, 4.66 µM (inactive); in the assay on NCI-H23, 3.7 µM (inactive); in the assay with RPMI-8226, 2.84 µM (inactive); with SF-295, 3.99 µM (inactive); in the assay with SF-539 it was 4.5 µM (inactive). Moreover, the GI50 is 7.83 µM (inactive) in the assay on SK-MEL-28; 8.45 µM (inactive) in the assay on SK-MEL-2; 3.67 µM (inactive) with SK-MEL-5; 6.76 µM (inactive) in the assay on SNB-19; 11.7 µM (inactive) in the assay with SNB-75; 4.21 µM (inactive) in the assay on U-251. Also, the GI50 in the assay on UO-31 is 2.72 µM (inactive).
For the compound `N#Cc1c(N2CCCC2)nsc1Nc1ccccc1`, the GI50 in the assay with EKVX, with HL-60, with HOP-92, in the assay with HT-29, in the assay with Hs-578T and in the assay with KM12 was > 100 µM (inactive) in each case. The GI50 in the assay on MDA-MB-231, with NCI-H226, in the assay with NCI-H23, in the assay with RPMI-8226, in the assay on SF-295 and in the assay on SF-539 was > 100 µM (inactive) each time. Besides, the GI50 with SK-MEL-28, with SK-MEL-2, in the assay on SK-MEL-5, in the assay on SNB-19, with SNB-75 and with UO-31 was > 100 µM (inactive) throughout.
On to `CCN(CC)c1ccc2cc(-c3csc(-c4ccc(N(C)C)cc4)n3)c(=O)oc2c1`, for which the GI50 is > 100 µM (inactive) with EKVX; > 100 µM (inactive) in the assay with HL-60; > 100 µM (inactive) in the assay with HOP-92; > 100 µM (inactive) with HT-29; > 100 µM (inactive) in the assay with Hs-578T; 67.9 µM (inactive) in the assay on KM12. Moreover, the GI50 in the assay on MDA-MB-231, with NCI-H226, in the assay on RPMI-8226, in the assay with SF-295, in the assay with SF-539 and in the assay with SK-MEL-28 was > 100 µM (inactive) each time. Besides, the GI50 in the assay on SK-MEL-2 is > 100 µM (inactive); in the assay with SK-MEL-5, > 100 µM (inactive); in the assay with SNB-19 it was > 100 µM (inactive); in the assay with SNB-75, 23.1 µM (inactive); with U-251 it was > 100 µM (inactive); in the assay on UO-31 it was > 100 µM (inactive).
`CCCCCCCCCc1cc(-c2ccc(C=O)s2)sc1-c1ccc(C=O)s1`: the GI50 in the assay with EKVX is 70.6 µM (inactive); in the assay with HL-60, 16.8 µM (inactive); with HOP-92 it was 27.9 µM (inactive); in the assay with HT-29, 39.5 µM (inactive); in the assay with Hs-578T, 17.9 µM (inactive); in the assay with KM12, 36.6 µM (inactive). The GI50 in the assay on MDA-MB-231 is 26.2 µM (inactive); with NCI-H226 it was 3.04 µM (inactive); with NCI-H23, 20.1 µM (inactive); in the assay on RPMI-8226 it was 11.4 µM (inactive); in the assay with SF-295, 32.7 µM (inactive); with SF-539, 41.1 µM (inactive). For the same compound, the GI50 is 33.7 µM (inactive) in the assay with SK-MEL-28; 25.5 µM (inactive) with SK-MEL-2; 15.7 µM (inactive) with SK-MEL-5; 22.6 µM (inactive) in the assay with SNB-19; 27 µM (inactive) in the assay with SNB-75; 10 µM (inactive) with U-251. Moreover, the GI50 in the assay on UO-31 is 17.7 µM (inactive).
Consider `CCN(CC)CC(=O)Nc1c(C(N)=O)nnn1Cc1cc(Cl)c(C(=O)c2ccc(Cl)cc2)c(Cl)c1`, for which the GI50 with EKVX was 27.2 µM (inactive); in the assay on HL-60 it was 15.5 µM (inactive); in the assay with HOP-92, 20.7 µM (inactive); with HT-29 it was 19.6 µM (inactive); in the assay on Hs-578T, 14.3 µM (inactive); in the assay with KM12, 18.8 µM (inactive). The GI50 was 16.9 µM (inactive) with MDA-MB-231; 14.4 µM (inactive) with NCI-H226; 14.6 µM (inactive) with NCI-H23; 22.3 µM (inactive) in the assay on RPMI-8226; 17.4 µM (inactive) in the assay on SF-295; 16.5 µM (inactive) in the assay on SF-539. In addition, the GI50 was 18.5 µM (inactive) in the assay with SK-MEL-28; 14.9 µM (inactive) in the assay on SK-MEL-2; 16.4 µM (inactive) in the assay on SK-MEL-5; 34.9 µM (inactive) in the assay on SNB-19; 21 µM (inactive) with SNB-75; 19.5 µM (inactive) with U-251. Further, the GI50 in the assay with UO-31 was 13.7 µM (inactive).
Consider `COc1ccc2oc(S(=O)(=O)N3CC(CCl)c4ccc([N+](=O)[O-])cc43)cc2c1` (centres undefined), for which the GI50 in the assay with EKVX was 0.173 µM (active); in the assay with HL-60 it was 0.0579 µM (active); with HOP-92, 0.533 µM (active); with HT-29 it was 0.146 µM (active); with Hs-578T it was 0.0454 µM (active); in the assay with KM12 it was 0.0465 µM (active). Also, the GI50 is 0.29 µM (active) in the assay with MDA-MB-231; 0.127 µM (active) with NCI-H226; 0.36 µM (active) in the assay on NCI-H23; 0.107 µM (active) with RPMI-8226; 0.0374 µM (active) in the assay with SF-295; 0.0607 µM (active) in the assay with SF-539. Further, the GI50 was 0.12 µM (active) in the assay on SK-MEL-2; 0.0752 µM (active) in the assay on SK-MEL-5; 0.233 µM (active) with SNB-19; 0.0933 µM (active) in the assay with SNB-75; 0.0955 µM (active) in the assay with U-251; 0.783 µM (active) in the assay on UO-31.
